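Following 48 hours of exposure in 96-well plates, responses at five concentrations were used to interpolate endpoints linearly. GI50 marks 50% less growth. TGI: concentration producing complete growth inhibition.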
What was measured:
Experiment in all cases: DTP human tumour cell line panel, 48 h
SF-295 CNS = tested on: SF-295 CNS
RXF 393 renal = tested on: RXF 393 renal
MDA-MB-435 = tested on: MDA-MB-435
SF-539 CNS = tested on: SF-539 CNS
SNB-75 CNS = tested on: SNB-75 CNS
CCRF-CEM leukemia = tested on: CCRF-CEM leukemia
SK-MEL-2 melanoma = tested on: SK-MEL-2 melanoma
HL-60(TB) leukemia = tested on: HL-60(TB) leukemia
PC-3 prostate = tested on: PC-3 prostate
NCI/ADR-RES ovarian = tested on: NCI/ADR-RES ovarian
EKVX NSCLC = tested on: EKVX NSCLC
NCI-H522 lung = tested on: NCI-H522 lung
HCC-2998 colon = tested on: HCC-2998 colon
SK-MEL-28 melanoma = tested on: SK-MEL-28 melanoma
U251 CNS = tested on: U251 CNS
MDA-MB-231 breast = tested on: MDA-MB-231 breast
NCI-H460 lung = tested on: NCI-H460 lung
HOP-62 NSCLC = tested on: HOP-62 NSCLC
SR leukemia = tested on: SR leukemia
UO-31 renal = tested on: UO-31 renal
SF-268 CNS = tested on: SF-268 CNS
SNB-19 CNS = tested on: SNB-19 CNS
RPMI-8226 leukemia = tested on: RPMI-8226 leukemia
SK-OV-3 ovarian = tested on: SK-OV-3 ovarian
NCI-H23 lung = tested on: NCI-H23 lung
MOLT-4 leukemia = tested on: MOLT-4 leukemia
CAKI-1 renal = tested on: CAKI-1 renal
NCI-H226 lung = tested on: NCI-H226 lung
HOP-92 NSCLC = tested on: HOP-92 NSCLC
IGROV1 ovarian = tested on: IGROV1 ovarian
HT29 colon = tested on: HT29 colon
SK-MEL-5 melanoma = tested on: SK-MEL-5 melanoma
COLO 205 colon = tested on: COLO 205 colon
TK-10 renal = tested on: TK-10 renal
HCT-15 colon = tested on: HCT-15 colon
HCT-116 colon = tested on: HCT-116 colon
UACC-62 melanoma = tested on: UACC-62 melanoma
MCF7 breast = tested on: MCF7 breast
OVCAR-5 ovarian = tested on: OVCAR-5 ovarian
OVCAR-4 ovarian = tested on: OVCAR-4 ovarian
UACC-257 melanoma = tested on: UACC-257 melanoma
OVCAR-3 ovarian = tested on: OVCAR-3 ovarian
SN12C renal = tested on: SN12C renal
KM12 colon = tested on: KM12 colon
BT-549 breast = tested on: BT-549 breast
OVCAR-8 ovarian = tested on: OVCAR-8 ovarian
786-0 renal = tested on: 786-0 renal
MALME-3M melanoma = tested on: MALME-3M melanoma
SW-620 colon = tested on: SW-620 colon
HS 578T breast = tested on: HS 578T breast
A498 renal = tested on: A498 renal
K-562 leukemia = tested on: K-562 leukemia
A549 NSCLC = tested on: A549 NSCLC
ACHN renal = tested on: ACHN renal
M14 melanoma = tested on: M14 melanoma
DU-145 prostate = tested on: DU-145 prostate
T-47D breast = tested on: T-47D breast
LOX IMVI melanoma = tested on: LOX IMVI melanoma
MDA-N = tested on: MDA-N

## Cc1cccc(CN(C)c2ccc(CO)c(Cl)c2)c1
SF-295 CNS
  GI50: 4.87 µM
  TGI: 46.8 µM
RXF 393 renal
  GI50: 9.52 µM
  TGI: 27.8 µM
MDA-MB-435
  GI50: 17.2 µM
  TGI: 49.3 µM
SF-539 CNS
  GI50: 26.8 µM
  TGI: > 77.3 µM
SNB-75 CNS
  GI50: 18.8 µM
  TGI: 80 µM
CCRF-CEM leukemia
  GI50: 27 µM
  TGI: > 100 µM
SK-MEL-2 melanoma
  GI50: 8.54 µM
  TGI: 36 µM
HL-60(TB) leukemia
  GI50: 23.8 µM
  TGI: 82.6 µM
PC-3 prostate
  GI50: 22.2 µM
  TGI: 96.3 µM
NCI/ADR-RES ovarian
  GI50: 17.2 µM
  TGI: 59.3 µM
EKVX NSCLC
  GI50: 22.6 µM
  TGI: 90.1 µM
NCI-H522 lung
  GI50: 17.6 µM
  TGI: 57.8 µM
HCC-2998 colon
  GI50: 15.9 µM
  TGI: 52.9 µM
SK-MEL-28 melanoma
  GI50: 19.3 µM
  TGI: > 76.1 µM
U251 CNS
  GI50: 5.07 µM
  TGI: 43.6 µM
MDA-MB-231 breast
  GI50: 21.9 µM
  TGI: > 86.2 µM
NCI-H460 lung
  GI50: 2.04 µM
  TGI: 15.8 µM
HOP-62 NSCLC
  GI50: 7.41 µM
  TGI: 40.6 µM
SR leukemia
  GI50: 24.7 µM
  TGI: > 73.8 µM
UO-31 renal
  GI50: 11.9 µM
  TGI: 64.3 µM
SF-268 CNS
  GI50: 33.7 µM
  TGI: > 100 µM
SNB-19 CNS
  GI50: 28.4 µM
  TGI: > 100 µM
RPMI-8226 leukemia
  GI50: 14.4 µM
  TGI: > 69.3 µM
SK-OV-3 ovarian
  GI50: 12.6 µM
  TGI: 46.8 µM
NCI-H23 lung
  GI50: 14.6 µM
  TGI: > 73.1 µM
MOLT-4 leukemia
  GI50: 22.2 µM
  TGI: > 75.5 µM
CAKI-1 renal
  GI50: 3.71 µM
  TGI: 44.3 µM
NCI-H226 lung
  GI50: 0.123 µM
  TGI: 0.279 µM
HOP-92 NSCLC
  GI50: 3.46 µM
  TGI: 28.2 µM
IGROV1 ovarian
  GI50: 0.475 µM
  TGI: 2.67 µM
HT29 colon
  GI50: 11.9 µM
  TGI: > 55.3 µM
SK-MEL-5 melanoma
  GI50: 9.47 µM
  TGI: 22.3 µM
COLO 205 colon
  GI50: 4.86 µM
  TGI: 17.7 µM
TK-10 renal
  GI50: 0.267 µM
  TGI: 1.56 µM
HCT-15 colon
  GI50: 19.8 µM
  TGI: > 100 µM
HCT-116 colon
  GI50: 0.549 µM
  TGI: 12.3 µM
UACC-62 melanoma
  GI50: 0.301 µM
  TGI: 2.96 µM
MCF7 breast
  GI50: 1.54 µM
  TGI: 21.3 µM
OVCAR-5 ovarian
  GI50: 0.881 µM
  TGI: 4.87 µM
OVCAR-4 ovarian
  GI50: 2.61 µM
  TGI: 25.3 µM
UACC-257 melanoma
  GI50: 0.565 µM
  TGI: 2.22 µM
OVCAR-3 ovarian
  GI50: 4.2 µM
  TGI: 17 µM
SN12C renal
  GI50: 15 µM
  TGI: 48.9 µM
KM12 colon
  GI50: 22.5 µM
  TGI: 72.4 µM
BT-549 breast
  GI50: 15.8 µM
  TGI: 42.9 µM
OVCAR-8 ovarian
  GI50: 16.1 µM
  TGI: > 79.5 µM
786-0 renal
  GI50: 13.2 µM
  TGI: 34.1 µM
MALME-3M melanoma
  GI50: 19.5 µM
  TGI: 49.8 µM
SW-620 colon
  GI50: 7.18 µM
  TGI: > 100 µM
HS 578T breast
  GI50: 22.5 µM
  TGI: > 83.3 µM
A498 renal
  GI50: 0.0433 µM
  TGI: 0.184 µM
K-562 leukemia
  GI50: 8.76 µM
  TGI: > 100 µM
A549 NSCLC
  GI50: 4.58 µM
  TGI: 34.4 µM
ACHN renal
  GI50: 32.7 µM
  TGI: > 100 µM
M14 melanoma
  GI50: 20.6 µM
  TGI: > 65.9 µM
DU-145 prostate
  GI50: 30.8 µM
  TGI: > 100 µM
T-47D breast
  GI50: 1.04 µM
  TGI: 7.66 µM
LOX IMVI melanoma
  GI50: 18 µM
  TGI: 40.4 µM

## O=C1/C(=C/c2ccc(O)cc2)NC(=S)N1CN1CCCCC1
SF-295 CNS
  TGI: > 100 µM
MDA-MB-435
  TGI: > 100 µM
SNB-75 CNS
  TGI: > 100 µM
CCRF-CEM leukemia
  TGI: > 100 µM
SK-MEL-2 melanoma
  TGI: > 100 µM
HL-60(TB) leukemia
  TGI: > 100 µM
PC-3 prostate
  TGI: > 100 µM
NCI/ADR-RES ovarian
  TGI: > 100 µM
EKVX NSCLC
  TGI: > 100 µM
NCI-H522 lung
  TGI: > 100 µM
SK-MEL-28 melanoma
  TGI: > 100 µM
U251 CNS
  TGI: > 100 µM
MDA-MB-231 breast
  TGI: > 100 µM
HOP-62 NSCLC
  TGI: > 100 µM
SR leukemia
  TGI: > 100 µM
UO-31 renal
  TGI: > 100 µM
SF-268 CNS
  TGI: > 100 µM
SNB-19 CNS
  TGI: > 100 µM
RPMI-8226 leukemia
  TGI: > 100 µM
SK-OV-3 ovarian
  TGI: > 100 µM
NCI-H23 lung
  TGI: > 100 µM
MOLT-4 leukemia
  TGI: > 100 µM
NCI-H226 lung
  TGI: > 100 µM
HOP-92 NSCLC
  TGI: > 100 µM
MDA-N
  TGI: > 100 µM
IGROV1 ovarian
  TGI: > 100 µM
HT29 colon
  TGI: > 100 µM
SK-MEL-5 melanoma
  TGI: > 100 µM
COLO 205 colon
  TGI: 56.4 µM
TK-10 renal
  TGI: > 100 µM
HCT-15 colon
  TGI: > 100 µM
HCT-116 colon
  TGI: > 100 µM
UACC-62 melanoma
  TGI: > 100 µM
MCF7 breast
  TGI: > 100 µM
OVCAR-5 ovarian
  TGI: > 100 µM
OVCAR-4 ovarian
  TGI: > 100 µM
OVCAR-3 ovarian
  TGI: > 100 µM
SN12C renal
  TGI: > 100 µM
KM12 colon
  TGI: > 100 µM
OVCAR-8 ovarian
  TGI: > 100 µM
786-0 renal
  TGI: > 100 µM
MALME-3M melanoma
  TGI: > 100 µM
SW-620 colon
  TGI: > 100 µM
HS 578T breast
  TGI: > 100 µM
A498 renal
  TGI: > 100 µM
K-562 leukemia
  TGI: > 100 µM
A549 NSCLC
  TGI: > 100 µM
ACHN renal
  TGI: > 100 µM
M14 melanoma
  TGI: > 100 µM
DU-145 prostate
  TGI: > 100 µM
LOX IMVI melanoma
  TGI: > 100 µM
